These results are taken from patent US20240269139A1, “COMPOUNDS FOR TARGETED PROTEIN DEGRADATION OF KINASES” (DANA-FARBER CANCER INSTITUTE, INC., priority 2020, published 2024).

The subject of assay [1] is protein kinases (human kinome). Type of assay: cell-based.
Another assay deals with T1, CRBN (Homo sapiens, UniProt Q96SW2).
T1 construct: HEK293T cells stably expressing the BRD4BD2-GFP with mCherry reporter; endogenous in cells; host or cells: HEK293T stably expressing BRD4BD2-GFP / mCherry reporter
The assay is described as follows: Competitive displacement assay for cellular CRBN engagement (BRD4BD2-GFP reporter, dBET6). Type of assay: cell-based, H. sapiens. To be noted: 5 hours in presence of dBET6. The method, then: HEK293T cells stably expressing the BRD4BD2-GFP with mCherry reporter were seeded at 30-50% confluency in 384-well plates with 50 μL FluoroBrite™ Dulbecco's Modified Eagle's medium (DMEM) media (Thermo Fisher Scientific. A18967) containing 10% fetal bovine serum (FBS) per well a day before compound treatment. Degrader titrations and 100 nM dBET6 or 250 nM AT1 were dispensed using a D300e Digital Dispenser (HP), normalized to 0.5% DMSO, and incubated with cells for 5 hours. Assay plates were imaged using Acumen® (TTP Labtech), as described above.

The target in assay [2] is T2, CRBN-degrader-kinase ternary complexes (Homo sapiens, UniProt Q96SW2).
T2 construct: host or cells: HEK293T
Put plainly: FLAG-CRBN affinity purification TMT LC-MS3 (AP-MS) of degrader-mediated ternary complexes. Type of assay: cell-based, H. sapiens. The following applies: HEK293T, 1 μM, 5 h, proteasome inhibitor. The source says: An important aspect of protein degraders is the multifaceted nature of the molecule that enables heightened target selectivity due to differences in complementarity of target-ligase interactions, which is not a consideration when assessing selectivity of inhibitors for target engagement (Famaby el al., Nat Chem Biol 15:672-680 (2019)). For compound-induced degradation to be successful, productive ternary complex formation (ligase-degrader-POI) is necessary for proximity-mediated ubiquitin transfer onto the POI. […] Cellular affinity purification was performed, followed by mass spectrometry (AP-MS) of FLAG-tagged CRBN transiently overexpressed in HEK293T cells. FLAG-CRBN expressing cells were co-treated with proteosome inhibitor and 1 μM of each degrader for 5 h, and the degree of kinase target enrichment was compared to kinase degradation hits in matched global proteomics analysis experiments (FIG. 3A, FIG. 3C). The proteins identified as complexed with CRBN were enriched for kinases as well as their known binding partners such as Cyclin B (CDK1) and RASSF1 (STK4), consistent with the binding profiles of the assayed degraders. All kinases identified by AP-MS except CSNK1A1 were also detected in the HEK293T whole proteome degrader profiling experiment, allowing us to interrogate trends across 52 unique kinases (FIG. 4A; FIG. 11B). Limitations of this experiment include the potential loss of transient or weakly bound complexes in the enrichment and subsequent wash steps, the inherent noise associated with AP-MS relative to global proteomics analysis (Dunham et al., Proteomics 12:1576-1590 (2012): Yugandhar et al., Comput Struct Biotechnol J 17:805-811 (2019)) and the short time point of the experiment, which precludes detection of degradation events with slow kinetics. Therefore, the relationship between the formation of abundant, stable ternary complexes and rapid degradation was assessed.
HEK293T cells were seeded into 15 cm plates and cells were transiently transfected with 8 μg of pNTM-FLAG-CRBN construct using lipofectamine 2000. […] Cells were harvested with non-enzymatic CellStripper™ Dissociation reagent (Corning®), followed by three washes with cold PBS and snap freezing. Cell lysis was performed by the addition of IP lysis buffer (50 mM Tris. pH 7.5, 0.5% NP-40, 1 mM EDTA, 10% glycerol and 200 mM NaCl) containing protease inhibitor cocktail (cOmplete™) and relevant co-treatment (above), followed by end-over-end rotation at 4° C. for 3 hours. Lysate was clarified by centrifugation and salt concentration diluted to 100 mM NaCl with the addition of 0 mM NaCl lysis buffer (containing protease inhibitors and 1 μM of relevant compounds to retain temary complexes throughout binding). Lysate was added to 20 μL of pre-washed anti-FLAG M2 magnetic bead slurry (MilliporeSigma) and incubated with end-over-end rotation at 4° C. overnight. Beads were washed six times with 100 mM NaCl lysis buffer containing 1 μM of relevant degraders to retain ternary complexes throughout wash steps.
Proteins were eluted in a two-step elution with the addition of 0.1 M Glycine hydrochloride (MilliporeSigma) and elution buffered to pH 8.5 using 200 mM Tris buffer, pH 8.5. […] Protein pellets were resuspended in 50 μL of EPPs pH 8 and first digested with 2 μg LysC for 12 h at room temperature (RT), followed by 1 μg of trypsin for 6 hours at 37° C.

The format of assay [3] is cell-based, H. sapiens. The following applies: MOLT-4, 1 μM, 5 h, 5 μM CB-5083.
The target of assay [4] is protein kinases (human kinome) (Homo sapiens, UniProt Q16877). Type of assay: cell-based. The following applies: PFKFB4 (Q16877); experiment wp071.
Assay [5] addresses T3, protein kinases (human kinome) (Homo sapiens, UniProt O14965).
T3 sequence (O14965 1-403): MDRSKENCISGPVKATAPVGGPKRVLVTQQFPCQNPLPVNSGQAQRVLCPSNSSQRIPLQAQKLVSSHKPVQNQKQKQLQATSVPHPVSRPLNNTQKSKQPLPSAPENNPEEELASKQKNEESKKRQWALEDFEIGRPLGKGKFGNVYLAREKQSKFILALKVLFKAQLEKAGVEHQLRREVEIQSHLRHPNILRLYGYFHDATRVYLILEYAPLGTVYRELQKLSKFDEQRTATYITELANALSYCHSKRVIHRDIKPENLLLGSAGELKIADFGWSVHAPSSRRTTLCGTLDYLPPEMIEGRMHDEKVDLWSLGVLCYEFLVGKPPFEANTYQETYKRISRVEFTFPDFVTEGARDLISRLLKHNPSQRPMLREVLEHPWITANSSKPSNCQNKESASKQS
Type of assay: cell-based. To be noted: experiment wp076.

Assay [6] addresses T4, protein kinases (human kinome) (Homo sapiens, UniProt O60285).
T4 sequence (O60285 1-661): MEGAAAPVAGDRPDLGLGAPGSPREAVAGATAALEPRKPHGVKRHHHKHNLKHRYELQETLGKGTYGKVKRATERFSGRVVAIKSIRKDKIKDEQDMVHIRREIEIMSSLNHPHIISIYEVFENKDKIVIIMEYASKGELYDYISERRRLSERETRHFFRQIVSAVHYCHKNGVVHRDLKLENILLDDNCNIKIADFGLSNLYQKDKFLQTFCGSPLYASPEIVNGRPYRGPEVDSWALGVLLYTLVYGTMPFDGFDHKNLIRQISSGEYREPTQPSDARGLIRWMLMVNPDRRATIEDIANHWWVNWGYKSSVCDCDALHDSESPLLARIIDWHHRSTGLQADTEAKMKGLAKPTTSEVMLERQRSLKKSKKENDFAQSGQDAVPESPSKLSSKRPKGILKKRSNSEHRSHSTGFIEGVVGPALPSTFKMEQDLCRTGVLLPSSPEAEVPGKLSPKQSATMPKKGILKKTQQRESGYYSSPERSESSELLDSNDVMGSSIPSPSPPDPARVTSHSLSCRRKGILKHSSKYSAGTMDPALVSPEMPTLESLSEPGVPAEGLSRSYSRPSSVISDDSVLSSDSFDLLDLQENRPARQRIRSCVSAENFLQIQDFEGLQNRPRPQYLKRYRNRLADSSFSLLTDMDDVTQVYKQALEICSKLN
Type of assay: cell-based. To be noted: NUAK1 (O60285), experiment wp076.

Assay [7] addresses protein kinases (human kinome) (Homo sapiens, UniProt P30291). Type of assay: cell-based. To be noted: experiment wp076.
Assay [8] has as its target protein kinases (human kinome) (Homo sapiens, UniProt P51812). Type of assay: cell-based. To be noted: RPS6KA3 (P51812), experiment wp076.
In assay [9] the target is T5, protein kinases (human kinome) (Homo sapiens, UniProt P52789).
T5 sequence (P52789 1-917): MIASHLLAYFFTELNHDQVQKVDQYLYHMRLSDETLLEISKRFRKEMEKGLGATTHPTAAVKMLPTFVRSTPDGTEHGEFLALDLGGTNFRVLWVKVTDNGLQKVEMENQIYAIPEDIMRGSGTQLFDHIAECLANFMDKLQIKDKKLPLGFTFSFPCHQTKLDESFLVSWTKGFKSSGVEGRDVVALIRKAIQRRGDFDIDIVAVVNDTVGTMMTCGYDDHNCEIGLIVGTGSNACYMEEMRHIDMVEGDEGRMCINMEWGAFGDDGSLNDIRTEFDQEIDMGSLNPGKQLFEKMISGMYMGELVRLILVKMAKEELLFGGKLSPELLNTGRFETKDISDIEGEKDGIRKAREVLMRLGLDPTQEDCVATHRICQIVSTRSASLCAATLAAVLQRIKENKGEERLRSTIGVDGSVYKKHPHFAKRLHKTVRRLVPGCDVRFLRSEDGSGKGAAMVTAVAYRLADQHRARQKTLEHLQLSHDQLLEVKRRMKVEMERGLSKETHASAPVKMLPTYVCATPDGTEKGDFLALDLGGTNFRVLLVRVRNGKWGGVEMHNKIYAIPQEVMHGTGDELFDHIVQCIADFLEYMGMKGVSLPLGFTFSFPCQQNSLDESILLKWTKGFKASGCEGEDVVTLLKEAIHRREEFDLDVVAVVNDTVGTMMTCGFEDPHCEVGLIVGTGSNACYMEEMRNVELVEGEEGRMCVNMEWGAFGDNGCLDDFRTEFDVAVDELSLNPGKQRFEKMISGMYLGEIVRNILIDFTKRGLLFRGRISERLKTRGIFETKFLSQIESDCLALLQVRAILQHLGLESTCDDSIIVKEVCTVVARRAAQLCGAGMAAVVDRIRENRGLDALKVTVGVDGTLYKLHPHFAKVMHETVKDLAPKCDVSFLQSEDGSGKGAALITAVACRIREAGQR
Type of assay: cell-based. The following applies: HK2 (P52789); experiment wp076.

In assay [10] the target is protein kinases (human kinome) (Homo sapiens, UniProt Q14289). Type of assay: cell-based.
The target in assay [11] is protein kinases (human kinome) (Homo sapiens, UniProt Q9BYT3). Type of assay: cell-based. To be noted: STK33 (Q9BYT3-1), experiment wp076.

Read-outs that look alike come from different tables or passages of the source.

Turning to `Nc1ncc(-c2ccc(S(=O)(=O)N(CCCNC(=O)CCOCCOCCOCCOCCOCCNc3cccc4c3C(=O)N(C3CCC(=O)NC3=O)C4=O)C3CC3)cc2)cc1-c1ccc2c(c1)CCNC2=O` (stereo not shown) [WH-10417-099], in assay [1] (MOLT-4, KELLY, HEK293T), the “targets with significantly different degrader efficacy in the different cell lines with no obvious difference in protein expression” value was “GSK3B”. For the same compound, in [1] (as stated for the structure in the embodiments), the “kinases the bifunctional compound degrades” value is “CDK14, CSNK1A1, CSNK1D, CSNK1E, GSK3A, GSK3B, LIMK2, MAP3K1, MINK1, NUAK1, PAK4, PIM2, STK10, STK17B, STK35, and STK4”. Moreover, the Kinase hits result in assay [1] (kinases significantly downregulated vs DMSO (fold change cutoff −1.25, P-value<0.01), ≤8 h, 0.1-5 μM degrader, 7 cell lines) is given as “CDK14, CSNK1A1, CSNK1D, CSNK1E, GSK3A, GSK3B, LIMK2, MAP3K1, MINK1, NUAK1, PAK4, PIM2, STK10, STKI7B, STK35, STK4”. In addition, the “Total no. kinase hits” value in assay [1] (number of degraded kinases per library compound) worked out at 13. Besides, on CRBN, the “cellular permeability / CRBN engagement” value was “able to permeate the cell membrane and bind to the CRBN E3 ligase”. Also, the “IRAK1: ternary complex formation with CRBN versus degradation” value in [2] is given as “complex formation does not predict degradation”. The “STK4 degradation rescue on p97 inhibition” value in [3] is “very little degradation rescue”.

On to `COc1cc(N2CCN(CC(=O)NCCCCCCNc3cccc4c3C(=O)N(C3CCC(=O)NC3=O)C4=O)CC2)ccc1Nc1ncc2c(n1)N(C)c1ccccc1C(=O)N2CC(F)(F)F` (stereo not shown) [FMF.04.135.1], for which, in assay [4], the logFC was −0.4969.

Consider `CNC(=O)c1ccccc1Nc1cc(Nc2ccc(N3CCN(CCCCCCCCNc4cccc5c4C(=O)N(C4CCC(=O)NC4=O)C5=O)CC3)cc2OC)ncc1C(F)(F)F` (stereo not shown) [MFH.5.116.1], for which, in assay [5], the “logFC AURKA (O14965)” value is reported as −0.707. For the same compound, the logFC in [6] was −0.7078; in assay [6] (direction down), −0.7078; in assay [8], −0.369; in [8] (direction down), −0.369; in [9], −0.4347; in assay [10] (PTK2B (Q14289-1) protein abundance, degrader vs DMSO, down) it was −2.946. Further, the logFC in assay [11] and in assay [11] (direction down) was −1.382 in each case. Also, in assay [7] (WEE1 P30291-1, degrader vs DMSO), the “logFC of WEE1” value is on record as −0.4799. For the same compound, in [7], the “logFC WEE1 (P30291-1)” value is recorded as −0.4799. Also, the “logFC PTK2B” value in [10] (PTK2B, accession Q14289-1, experiment wp076, direction of change down) is −2.946. Further, the “logFC RPS6KA1” value in [1] (RPS6KA1 (Q15418-2), experiment wp076) is recorded as −0.5757. For the same compound, the “logFC RPS6KA1 (Q15418-2)” value in assay [1] (experiment wp076) is recorded as −0.5757.
